Data from ChEMBL document CHEMBL4507297, “Data for DCP probe PF-04457845” (2021).
Activity calls are given as the source filed them. The rule behind the calls is not given here.

How the values were obtained:
[1] = system: Tyrosine-protein kinase ABL1 (Homo sapiens), P00519 [T315I]; conditions: Compound concentration 1000.0 nM
[2] = biological target: 5'-AMP-activated protein kinase catalytic subunit alpha-1 (Homo sapiens) (UniProt Q13131); conditions: Compound concentration 1000.0 nM
[3] = biological target: NUAK family SNF1-like kinase 1 (Homo sapiens) (UniProt O60285); conditions: Compound concentration 1000.0 nM
[4] = biological target: Bone morphogenetic protein receptor type-2 (Homo sapiens) (UniProt Q13873); conditions: Compound concentration 1000.0 nM
[5] = biological target: Calcium/calmodulin-dependent protein kinase type II subunit alpha (Homo sapiens) (UniProt Q9UQM7); conditions: Compound concentration 1000.0 nM
Sequence of Calcium/calmodulin-dependent protein kinase type II subunit alpha (Homo sapiens) (Q9UQM7 whole entry): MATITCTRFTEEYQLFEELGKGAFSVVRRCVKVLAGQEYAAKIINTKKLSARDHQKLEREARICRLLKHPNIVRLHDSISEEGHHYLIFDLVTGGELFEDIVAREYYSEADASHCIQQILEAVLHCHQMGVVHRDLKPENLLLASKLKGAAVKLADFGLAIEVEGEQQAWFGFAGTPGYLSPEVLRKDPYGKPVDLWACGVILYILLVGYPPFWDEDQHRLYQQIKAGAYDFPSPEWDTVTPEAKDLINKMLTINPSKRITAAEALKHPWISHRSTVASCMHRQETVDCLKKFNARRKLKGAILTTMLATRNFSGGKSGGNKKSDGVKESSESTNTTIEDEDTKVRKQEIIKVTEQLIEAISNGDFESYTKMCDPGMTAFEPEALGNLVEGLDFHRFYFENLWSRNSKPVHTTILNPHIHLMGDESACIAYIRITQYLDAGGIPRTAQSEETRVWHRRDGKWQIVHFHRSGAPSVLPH

[6] = biological target: Calcium/calmodulin-dependent protein kinase type II subunit delta (Homo sapiens) (UniProt Q13557); conditions: Compound concentration 1000.0 nM
Sequence of Calcium/calmodulin-dependent protein kinase type II subunit delta (Homo sapiens) (Q13557 whole entry): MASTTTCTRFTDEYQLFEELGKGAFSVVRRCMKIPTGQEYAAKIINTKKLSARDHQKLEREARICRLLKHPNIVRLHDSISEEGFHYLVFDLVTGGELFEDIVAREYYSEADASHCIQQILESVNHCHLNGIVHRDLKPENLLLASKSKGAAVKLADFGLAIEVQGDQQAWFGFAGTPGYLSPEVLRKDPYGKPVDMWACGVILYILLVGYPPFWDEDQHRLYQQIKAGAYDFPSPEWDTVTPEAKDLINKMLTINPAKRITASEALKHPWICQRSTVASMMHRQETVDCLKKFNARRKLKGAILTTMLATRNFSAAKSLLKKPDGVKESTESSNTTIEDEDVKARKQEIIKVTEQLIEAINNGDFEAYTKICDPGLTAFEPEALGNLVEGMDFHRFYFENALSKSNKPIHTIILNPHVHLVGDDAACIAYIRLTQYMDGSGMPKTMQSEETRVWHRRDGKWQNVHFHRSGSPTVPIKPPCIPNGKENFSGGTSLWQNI

[7] = biological target: Calcium/calmodulin-dependent protein kinase kinase 1 (Homo sapiens) (UniProt Q8N5S9); conditions: Compound concentration 1000.0 nM
Sequence of Calcium/calmodulin-dependent protein kinase kinase 1 (Homo sapiens) (Q8N5S9 whole entry, looked up): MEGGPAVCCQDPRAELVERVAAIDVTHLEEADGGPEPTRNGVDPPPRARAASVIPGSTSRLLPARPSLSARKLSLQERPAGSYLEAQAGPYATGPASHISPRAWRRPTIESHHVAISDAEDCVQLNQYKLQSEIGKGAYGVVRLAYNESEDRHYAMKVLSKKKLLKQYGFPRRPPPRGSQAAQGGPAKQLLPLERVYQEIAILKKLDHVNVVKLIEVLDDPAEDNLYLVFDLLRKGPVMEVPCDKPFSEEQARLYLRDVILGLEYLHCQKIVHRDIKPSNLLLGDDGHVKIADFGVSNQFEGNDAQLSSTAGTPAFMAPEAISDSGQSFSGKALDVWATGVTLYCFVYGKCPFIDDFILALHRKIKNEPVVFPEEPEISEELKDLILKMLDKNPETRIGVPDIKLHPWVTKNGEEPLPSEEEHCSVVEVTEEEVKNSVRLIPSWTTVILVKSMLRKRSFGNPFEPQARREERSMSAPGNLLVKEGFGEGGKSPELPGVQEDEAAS

[8] = biological target: Cyclin-dependent kinase 11A (Homo sapiens) (UniProt Q9UQ88); conditions: Compound concentration 1000.0 nM
[9] = biological target: Cyclin-dependent kinase 2 (Homo sapiens) (UniProt P24941); conditions: Compound concentration 1000.0 nM
[10] = biological target: Cyclin-dependent kinase 3 (Homo sapiens) (UniProt Q00526); conditions: Compound concentration 1000.0 nM
[11] = biological target: Dual specificity protein kinase CLK4 (Homo sapiens) (UniProt Q9HAZ1); conditions: Compound concentration 1000.0 nM
[12] = biological target: Casein kinase I isoform alpha (Homo sapiens) (UniProt P48729); conditions: Compound concentration 1000.0 nM
Sequence of Casein kinase I isoform alpha (Homo sapiens) (P48729 2-337 limits assumed): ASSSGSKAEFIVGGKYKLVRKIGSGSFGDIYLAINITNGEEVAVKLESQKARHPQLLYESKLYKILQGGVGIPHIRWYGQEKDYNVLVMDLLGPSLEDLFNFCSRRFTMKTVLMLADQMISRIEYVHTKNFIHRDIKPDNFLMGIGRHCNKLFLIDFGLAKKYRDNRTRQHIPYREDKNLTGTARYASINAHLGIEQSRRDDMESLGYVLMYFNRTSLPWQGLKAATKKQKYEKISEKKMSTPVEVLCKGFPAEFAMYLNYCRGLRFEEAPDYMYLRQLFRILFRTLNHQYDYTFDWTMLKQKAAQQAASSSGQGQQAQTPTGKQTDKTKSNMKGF

[13] = biological target: Casein kinase I isoform gamma-2 (Homo sapiens) (UniProt P78368); conditions: Compound concentration 1000.0 nM
[14] = biological target: Epithelial discoidin domain-containing receptor 1 (Homo sapiens) (UniProt Q08345); conditions: Compound concentration 1000.0 nM
[15] = biological target: Focal adhesion kinase 1 (Homo sapiens) (UniProt Q05397); conditions: Compound concentration 1000.0 nM
[16] = biological target: Tyrosine-protein kinase Fyn (Homo sapiens) (UniProt P06241); conditions: Compound concentration 1000.0 nM
[17] = biological target: Glycogen synthase kinase-3 alpha (Homo sapiens) (UniProt P49840); conditions: Compound concentration 1000.0 nM
[18] = biological target: Tyrosine-protein kinase JAK1 (Homo sapiens) (UniProt P23458); conditions: Compound concentration 1000.0 nM
[19] = biological target: Mast/stem cell growth factor receptor Kit (Homo sapiens) (UniProt P10721); conditions: Compound concentration 1000.0 nM
Sequence of Mast/stem cell growth factor receptor Kit (Homo sapiens) (P10721 whole entry): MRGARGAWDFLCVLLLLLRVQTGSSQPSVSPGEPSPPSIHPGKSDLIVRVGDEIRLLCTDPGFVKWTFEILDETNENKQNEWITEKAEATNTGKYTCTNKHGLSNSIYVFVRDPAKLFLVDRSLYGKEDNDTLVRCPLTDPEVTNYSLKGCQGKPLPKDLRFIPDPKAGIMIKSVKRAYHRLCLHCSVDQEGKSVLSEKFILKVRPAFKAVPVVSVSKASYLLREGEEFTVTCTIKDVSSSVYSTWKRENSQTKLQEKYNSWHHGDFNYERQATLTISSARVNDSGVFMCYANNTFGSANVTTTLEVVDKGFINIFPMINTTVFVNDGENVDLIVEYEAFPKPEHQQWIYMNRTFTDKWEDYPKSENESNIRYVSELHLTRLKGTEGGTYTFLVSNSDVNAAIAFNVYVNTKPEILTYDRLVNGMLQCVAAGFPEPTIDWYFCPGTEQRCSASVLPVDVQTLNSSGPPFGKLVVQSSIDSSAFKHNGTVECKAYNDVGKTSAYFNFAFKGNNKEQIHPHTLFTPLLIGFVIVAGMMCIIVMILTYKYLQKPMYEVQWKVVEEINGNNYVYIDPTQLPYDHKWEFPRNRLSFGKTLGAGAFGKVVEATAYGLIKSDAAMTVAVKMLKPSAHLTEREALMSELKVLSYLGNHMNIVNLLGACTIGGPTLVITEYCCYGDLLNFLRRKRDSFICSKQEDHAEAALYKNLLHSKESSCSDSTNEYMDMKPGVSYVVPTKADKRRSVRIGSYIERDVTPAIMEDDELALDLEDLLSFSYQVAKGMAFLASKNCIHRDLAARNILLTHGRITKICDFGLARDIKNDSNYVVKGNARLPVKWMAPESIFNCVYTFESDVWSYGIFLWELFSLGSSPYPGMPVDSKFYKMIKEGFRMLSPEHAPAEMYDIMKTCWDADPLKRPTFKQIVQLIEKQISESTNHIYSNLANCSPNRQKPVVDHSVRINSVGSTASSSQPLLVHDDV

[20] = system: Mast/stem cell growth factor receptor Kit (Homo sapiens), P10721 [V559D]; conditions: Compound concentration 1000.0 nM
Sequence of Mast/stem cell growth factor receptor Kit (Homo sapiens), P10721 [V559D] (P10721 whole entry V559D): as the sequence (P10721 whole entry) above, with V559D counted along it

[21] = biological target: Mast/stem cell growth factor receptor Kit (Homo sapiens) (UniProt P10721); conditions: Compound concentration 1000.0 nM; remark: listed apart in the source
[22] = system: Leucine-rich repeat serine/threonine-protein kinase 2 (Homo sapiens), Q5S007 [G2019S]; conditions: Compound concentration 1000.0 nM
[23] = biological target: MAP kinase-activated protein kinase 2 (Homo sapiens) (UniProt P49137); conditions: Compound concentration 1000.0 nM
Sequence of MAP kinase-activated protein kinase 2 (Homo sapiens) (P49137 whole entry, looked up): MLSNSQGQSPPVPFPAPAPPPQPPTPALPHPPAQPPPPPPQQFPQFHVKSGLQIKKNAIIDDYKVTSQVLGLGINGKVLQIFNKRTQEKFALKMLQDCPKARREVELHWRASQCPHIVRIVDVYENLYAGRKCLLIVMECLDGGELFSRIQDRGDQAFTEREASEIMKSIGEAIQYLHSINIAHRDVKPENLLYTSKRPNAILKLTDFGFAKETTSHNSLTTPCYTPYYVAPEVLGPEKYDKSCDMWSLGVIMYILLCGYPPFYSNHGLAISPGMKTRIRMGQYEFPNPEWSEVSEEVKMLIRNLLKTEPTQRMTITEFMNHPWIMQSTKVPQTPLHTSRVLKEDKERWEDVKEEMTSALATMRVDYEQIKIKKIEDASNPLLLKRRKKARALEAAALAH

[24] = biological target: Microtubule-associated serine/threonine-protein kinase 1 (Homo sapiens) (UniProt Q9Y2H9); conditions: Compound concentration 1000.0 nM
[25] = biological target: Serine/threonine-protein kinase mTOR (Homo sapiens) (UniProt P42345); conditions: Compound concentration 1000.0 nM
[26] = biological target: Muscle, skeletal receptor tyrosine-protein kinase (Homo sapiens) (UniProt O15146); conditions: Compound concentration 1000.0 nM
[27] = biological target: Myosin light chain kinase family member 4 (Homo sapiens) (UniProt Q86YV6); conditions: Compound concentration 1000.0 nM
[28] = biological target: Serine/threonine-protein kinase Nek1 (Homo sapiens) (UniProt Q96PY6); conditions: Compound concentration 1000.0 nM
[29] = biological target: Serine/threonine-protein kinase PAK 4 (Homo sapiens) (UniProt O96013); conditions: Compound concentration 1000.0 nM
[30] = biological target: Serine/threonine-protein kinase PAK 5 (Homo sapiens) (UniProt Q9P286); conditions: Compound concentration 1000.0 nM
[31] = biological target: Cyclin-dependent kinase 2 homolog (Plasmodium falciparum (isolate 3D7)) (UniProt P61075); conditions: Compound concentration 1000.0 nM
Sequence of Cyclin-dependent kinase 2 homolog (Plasmodium falciparum (isolate 3D7)) (P61075 whole entry, canonical isoform): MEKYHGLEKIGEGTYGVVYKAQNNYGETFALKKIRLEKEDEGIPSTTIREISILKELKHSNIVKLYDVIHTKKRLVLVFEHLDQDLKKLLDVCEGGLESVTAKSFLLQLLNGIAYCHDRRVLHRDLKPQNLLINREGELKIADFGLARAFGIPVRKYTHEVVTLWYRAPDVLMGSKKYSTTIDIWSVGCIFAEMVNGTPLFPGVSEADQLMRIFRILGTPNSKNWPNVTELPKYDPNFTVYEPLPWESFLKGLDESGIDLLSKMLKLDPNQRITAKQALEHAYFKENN

[32] = biological target: Phosphatidylinositol 4,5-bisphosphate 3-kinase catalytic subunit alpha isoform (Homo sapiens) (UniProt P42336); conditions: Compound concentration 1000.0 nM
[33] = biological target: Protein-tyrosine kinase 2-beta (Homo sapiens) (UniProt Q14289); conditions: Compound concentration 1000.0 nM
[34] = biological target: Receptor-interacting serine/threonine-protein kinase 1 (Homo sapiens) (UniProt Q13546); conditions: Compound concentration 1000.0 nM
[35] = biological target: Dual serine/threonine and tyrosine protein kinase (Homo sapiens) (UniProt Q6XUX3); conditions: Compound concentration 1000.0 nM
[36] = biological target: Proto-oncogene tyrosine-protein kinase ROS (Homo sapiens) (UniProt P08922); conditions: Compound concentration 1000.0 nM
[37] = biological target: Serine/threonine-protein kinase Sgk1 (Homo sapiens) (UniProt O00141); conditions: Compound concentration 1000.0 nM
[38] = biological target: SRSF protein kinase 2 (Homo sapiens) (UniProt P78362); conditions: Compound concentration 1000.0 nM
[39] = biological target: Serine/threonine-protein kinase 32A (Homo sapiens) (UniProt Q8WU08); conditions: Compound concentration 1000.0 nM
[40] = biological target: D(1B) dopamine receptor (Homo sapiens) (UniProt P21918); conditions: Compound concentration 10.0 uM
[41] = biological target: Fatty-acid amide hydrolase 1 (Homo sapiens, UniProt O00519); test: Glutamate dehydrogenase-coupled FAAH assay (preincubation time 60 min)
[42] = biological target: D(2) dopamine receptor (Homo sapiens) (UniProt P14416); test: D2S (h) CEREP ligand profiling; conditions: Compound concentration 10.0 uM
[43] = biological target: Acetylcholinesterase (Homo sapiens) (UniProt P22303); test: Acetylcholinesterase (h) CEREP ligand profiling; conditions: Compound concentration 10.0 uM
[44] = biological target: 5-hydroxytryptamine receptor 1A (Homo sapiens) (UniProt P08908); conditions: Compound concentration 10.0 uM
[45] = biological target: Delta-type opioid receptor (Homo sapiens) (UniProt P41143); conditions: Compound concentration 10.0 uM

Sequence of 5'-AMP-activated protein kinase catalytic subunit alpha-1 (Homo sapiens) (Q13131 whole entry, looked up): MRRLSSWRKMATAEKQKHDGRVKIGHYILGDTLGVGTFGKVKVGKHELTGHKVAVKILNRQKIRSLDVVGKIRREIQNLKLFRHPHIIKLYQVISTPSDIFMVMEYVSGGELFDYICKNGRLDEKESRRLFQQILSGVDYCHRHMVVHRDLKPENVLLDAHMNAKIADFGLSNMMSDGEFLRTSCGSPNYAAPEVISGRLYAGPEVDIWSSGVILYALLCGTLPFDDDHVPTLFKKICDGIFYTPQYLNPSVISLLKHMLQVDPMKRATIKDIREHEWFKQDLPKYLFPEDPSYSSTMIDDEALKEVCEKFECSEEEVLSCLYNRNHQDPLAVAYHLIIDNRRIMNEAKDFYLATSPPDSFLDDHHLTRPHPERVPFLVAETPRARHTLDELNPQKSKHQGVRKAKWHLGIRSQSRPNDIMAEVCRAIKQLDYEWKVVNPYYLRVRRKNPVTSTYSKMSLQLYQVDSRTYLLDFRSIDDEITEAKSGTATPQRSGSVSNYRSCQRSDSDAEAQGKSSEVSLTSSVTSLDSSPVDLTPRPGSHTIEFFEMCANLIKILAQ

## O=C(Nc1cccnn1)N1CC(C/C=C/c2cncc(Oc3ccc(C(F)(F)F)cn3)n2)C1
[1]
  residual activity: 80%
[2]
  residual activity: 100%
[3]
  residual activity: 100%
[4]
  residual activity: 76%
[5]
  residual activity: 100%
[6]
  residual activity: 100%
[7]
  residual activity: 100%
[8]
  residual activity: 100%
[9]
  residual activity: 100%
[10]
  residual activity: 100%
[11]
  residual activity: 98%
[12]
  residual activity: 88%
[13]
  residual activity: 100%
[14]
  residual activity: 99%
[15]
  residual activity: 100%
[16]
  residual activity: 100%
[17]
  residual activity: 92%
[18]
  residual activity: 95%
[19]
  residual activity: 80%
[20]
  residual activity: 64%
[21]
  residual activity: 78%
[22]
  residual activity: 100%
[23]
  residual activity: 100%
[24]
  residual activity: 58%
[25]
  residual activity: 100%
[26]
  residual activity: 97%
[27]
  residual activity: 100%
[28]
  residual activity: 100%
[29]
  residual activity: 96%
[30]
  residual activity: 95%
[31]
  residual activity: 93%
[32]
  residual activity: 100%
[33]
  residual activity: 100%
[34]
  residual activity: 100%
[35]
  residual activity: 65%
[36]
  residual activity: 100%
[37]
  residual activity: 85%
[38]
  residual activity: 100%
[39]
  residual activity: 100%
[40]
  inhibition: 4.5%

## O=C(Nc1cccnn1)N1CCC(=Cc2cccc(Oc3ccc(C(F)(F)F)cn3)c2)CC1
[41]
  IC50: 7.4 nM (active)
[42]
  inhibition: -9%
[43]
  inhibition: 10%
[1]
  residual activity: 76%
[2]
  residual activity: 88%
[3]
  residual activity: 86%
[4]
  residual activity: 100%
[5]
  residual activity: 72%
[6]
  residual activity: 82%
[7]
  residual activity: 92%
[8]
  residual activity: 82%
[9]
  residual activity: 100%
[10]
  residual activity: 100%
[11]
  residual activity: 70%
[12]
  residual activity: 100%
[13]
  residual activity: 92%
[14]
  residual activity: 79%
[15]
  residual activity: 100%
[16]
  residual activity: 100%
[17]
  residual activity: 100%
[18]
  residual activity: 100%
[19]
  residual activity: 81%
[20]
  residual activity: 75%
[21]
  residual activity: 100%
[22]
  residual activity: 100%
[23]
  residual activity: 87%
[24]
  residual activity: 100%
[25]
  residual activity: 87%
[26]
  residual activity: 100%
[27]
  residual activity: 100%
[28]
  residual activity: 98%
[29]
  residual activity: 77%
[30]
  residual activity: 100%
[31]
  residual activity: 100%
[32]
  residual activity: 100%
[33]
  residual activity: 97%
[34]
  residual activity: 97%
[35]
  residual activity: 69%
[36]
  residual activity: 80%
[37]
  residual activity: 100%
[38]
  residual activity: 100%
[39]
  residual activity: 100%
[44]
  inhibition: 20.2%
[40]
  inhibition: 29.3%
[45]
  inhibition: 12.3%
